Patent publication US11123324B2, “Immunomodulator” (priority 2016, dated 2021)
“Also recorded” adds a separate entry of the source.

Legend:
[1] = system: B cells (mouse splenic cells); assay: In vitro class switching induction assay in mouse splenic cell culture with anti-mouse/rat CD40, isotype antibody titer by ELISA; type: cell-based; details: for IgE induction, secondary screening / IgG1 induction, secondary screening: ELISA; for IgE induction, secondary screening / IgG1 induction, secondary screening / IgA induction, secondary screening: 3.75 μM; for IgA induction, secondary screening: IgA sandwich ELISA, day 10 after addition; for IgE antibody production on day 7 / total IgG antibody production on day 7: Indolactam V 5, 10 μM
Experimental: Under conditions of free access to food and water, 5- to 8-week-old wild-type BALB/cAJcl (purchased from CLEA Japan, Inc.) was euthanized by cervical dislocation under isoflurane anesthesia. 70% Ethanol was sprayed, left abdomen was incised and the spleen was aseptically isolated. The spleen was subjected to a mild crushing treatment with two sterilized glass slides in a culture petri dish containing 5 ml of cell culture medium (RPMI1640 added with 10% FCS, 0.05 μM 2 ME, 80 μg/ml gentamicin) to give a splenic single cell suspension. The cell suspension was placed in a 15 ml tube, stood for 5 min, and the supernatant free of tissue debris was transferred to a new 15 ml tube. A washing operation was performed twice with the above-mentioned cell culture medium to give the number of viable cells. B cells occupy 35% of the viable cells and the number of B cells was obtained by calculation.
Based on the B cell number obtained in Example 1, the splenic cell suspension was diluted with the above-mentioned cell culture medium to 5×10^5/ml B cells, and the cells were added to a 24-well culture dish. The compound and cytokine were added to each well as shown in the results. […]
[…] As for ELISA capture antibody, each isotype antibody (unlabeled, mentioned later) was diluted to 2 μg/ml with 0.05 M Na2CO3 solution, added to ELISA plate (C96 MAXISORP NUNC-Immunoplate, Thermo Scientific) at 50 μl/well, and the plate was coated overnight at 4° C.
The next day, the coated ELISA plate was washed 3 times with 1×PBS. After washing, 1% BSA-added 1×PBS (50 μl) was added to each well and blocking was carried out at room temperature for 1 hr. During the blocking reaction, a dilution series of each culture supernatant was prepared using 1% BSA-added 1×PBS. The diluted sample was added to the plate after blocking at 50 μl/well, and the mixture was reacted at room temperature for 1 hr. Thereafter, a washing operation was performed 3 times with 0.05% Tween 20-added 1×PBS solution. Then, the secondary antibody (alkaline phosphatase-labeled) (0.5 μg/ml) that recognizes each isotype was added at 50 μl/well, and the mixture was reacted at room temperature for 1 hr. A washing operation was performed 3 times with 0.05% Tween 20-added 1×PBS solution, a substrate solution (Phosphatase substrate Sigma 104) was added, the mixture was placed under shading at room temperature to allow for color development, and the absorbance (405 nm) was measured with a plate reader. The antibody titer was shown as a relative absorbance value in a graph, or the absolute value was calculated from comparison with the standard isotype antibody and shown graphically.
In the primary screening, 3,337 kinds of compounds (provided by Drug Discovery Initiative, The University of Tokyo) were subjected to in vitro class switching assay. The final concentration of the compounds was 3.75 μM, and DMSO was added at a final concentration of 0.25% and anti-mouse/rat CD40 was added at a final concentration of 1 μg/ml to all wells including the wells added with cytokine. As a negative control, DMSO and CD40 were added.
In the secondary screening, 22 kinds of the candidate compounds obtained by the primary screening were screened. The culture conditions were the same as those in the primary screening. As the positive control, each isotype control antibody (1 μg/ml) was added. […] Compound No. 2 (Sapintoxin D), No. 12 (PMA) and No. 18 (ROPA) were all protein kinase C (PKC) activators.
From the results of the secondary screening, a substance that specifically induces IgA is a PKC activator and it has a characteristic cyclic structure. As compounds having a similar structure, 17 kinds of compounds (K1-K17) including the above-mentioned 3 kinds were provided by the library of Drug Discovery Initiative, The University of Tokyo. […]

[2] = system: B cells (splenic cells); assay: Dose dependency of class switching induction by compound alone (no CD40), isotype ELISA; type: cell-based, mouse; details: 7 days; for IgA production by single stimulation free of CD40: each concentration tested (bryostatin 1 0-50 nM, 0-100 nM; Indolactam V 0-100 μM); for induction of IgE by single stimulation free of CD40 / induction of IgG by single stimulation free of CD40: each concentration tested
Experimental: Indolactam V and bryostatin 1 (Santa Cruz Biotechnology) were purchased, and induction of class switching was performed using splenic cells. To confirm dose dependency of compounds, stimulation was performed at the concentrations shown in FIG. 12, FIG. 13 and FIG. 14. For cell culture, the cells were added to each well of a 6 well plate at 1.0×10^6 B cells/1 ml/well and cultured for 7 days. The cells were cultured without adding anti-mouse/rat CD40 to all wells and the negative control was added with culture medium alone. Stimulation with each cytokine was used as a positive control. The final concentration of each cytokine was 1 μg/ml for anti-mouse/rat CD40, 12.5 ng/ml for IL-4, 20 μg/ml for LPS as in the above-mentioned experiments.
The antibody titer measurement of each isotype by ELISA was performed by a method similar to that mentioned above. As a result, it was confirmed at each concentration tested that IgA was produced and induction of IgG and IgE was not observed by single stimulation with each of bryostatin 1 and Indolactam V free of CD40.

[3] = system: alpha germline transcript; assay: RT-PCR confirmation of expression of alpha germline transcript in stimulated splenic cells; type: cell-based, mouse; details: day 3 of stimulation; for expression of alpha germline transcript (RT-PCR): FIG. 11
Experimental: (§1) As evidence that class switching is in progress, the expression of alpha germline transcript and AID was confirmed by RT-PCR. Splenic cells were first stimulated with compound or cytokine under the same conditions as in Example 2. On day 3 of stimulation, floating cells were recovered and total RNA was extracted. cDNA was synthesized using random primers and RT-PCR was performed using the following primers.
(§2) PCR was performed using rTaq (TAKARA) and under the following conditions: […]

[4] = stated as known / considered, not tested; cited from earlier work
[5] = system: AID; assay: RT-PCR confirmation of expression of AID in stimulated splenic cells; type: cell-based, mouse; details: day 3 of stimulation; for expression of AID (RT-PCR): FIG. 11
Experimental: as §1, §2

[6] = system: cultured splenic cells; assay: Proliferation / cell number of cultured splenic cells under stimulation; type: cell-based, mouse
Experimental: Based on the B cell number obtained in Example 1, the splenic cell suspension was diluted with the above-mentioned cell culture medium to 5×10^5/ml B cells, and the cells were added to a 24-well culture dish. The compound and cytokine were added to each well as shown in the results. DMSO was added such that the concentration of DMSO, which is a solvent of the compound was equivalent in each well (final concentration 0.25%). A mixed culture medium of the compound and splenic cells was subjected to static culture for one week under conditions of 37° C., 5% CO2.
Thus, a substance that has properties as a PKC activator but is free of carcinogenicity was searched for and bryostatin 1 (Santa Cruz Biotechnology sc-201407) was obtained as a candidate (FIGS. 6 and 7). […] Since bryostatin is a substance having a structure completely different from those of the compounds tested in the tertiary screening, those of ordinary skill in the art in consideration of the results of Example 3 and Example 4 readily appreciate that PKC activators in general can be used as substances that induce specific class switching to IgA. In the experiments shown in FIG. 6 and FIG. 7, the final concentration of Indolactam V was 5 μM and 10 μM from the left, and the final concentration of bryostatin 1 was 1 nM, 5 nM, 10 nM from the left.
It was considered to be more than the survival and maintenance of IgA-producing cells originally existed in the spleen. Expression of both transcripts was low when CD40 was not added for bryostatin 1. This may reflect the difference in the amount of cDNA used for RT-PCR.

| Compound | IgE induction, secondary screening ([1]; with CD40) | IgG1 induction, secondary screening ([1]; with CD40) | IgE antibody production on day 7 ([1]; bryostatin 1 1, 5, 10 nM) | total IgG antibody production on day 7 ([1]; bryostatin 1 1, 5, 10 nM) | IgA production by single stimulation free of CD40 [2] | induction of IgE by single stimulation free of CD40 [2] | induction of IgG by single stimulation free of CD40 [2] | expression of alpha germline transcript (RT-PCR) [3] | carcinogenicity [4] | expression of AID (RT-PCR) [5] | other results |
| --- | --- | --- | --- | --- | --- | --- | --- | --- | --- | --- | --- |
| CNc1ccccc1C(=O)O[C@@H]1[C@@H](C)[C@@]2(O)[C@@H](C=C(CO)C[C@]3(O)C(=O)C(C)=C[C@@H]23)[C@@H]2C(C)(C)[C@]12OC(C)=O [Compound No. 2, Sapintoxin D] | did not induce | did not induce |  |  |  |  |  |  |  |  | IgA induction, secondary screening ([1]; with CD40): induced IgA; also recorded: specifically induce IgA |
| Resiniferonol-9,13,14-orthophenyl acetate [compound 18] | did not induce | did not induce |  |  |  |  |  |  |  |  | IgA induction, secondary screening ([1]; with CD40, listed as No. 18): induced IgA; also recorded: specifically induce IgA |
| CC(C)[C@H]1C(=O)N[C@H](CO)Cc2c[nH]c3cccc(c23)N1C [Indolactam V] |  |  | scarcely produced | scarcely produced | produced; also recorded: Only the induction of IgA is shown to occur | not observed | not observed | observed | strong carcinogenicity | observed | IgA inducing activity, tertiary screening ([1]; culture supernatant one week later, with CD40, Indolactam V 1-7 μM): very strong; IgA specific class switching, tertiary screening ([1]; triplicate, culture supernatant one week later, with CD40, Indolactam V 1, 3, 3.75, 5, 7 μM): induced IgA specific class switching; also recorded: best effect |
| CCCCCCCCCCCCCC(=O)O[C@@H]1[C@@H](C)[C@@]2(O)[C@@H](C=C(CO)C[C@]3(O)C(=O)C(C)=C[C@@H]23)[C@@H]2C(C)(C)[C@]12OC(C)=O [compound 12, phorbol 12-myristate 13-acetate] | did not induce | did not induce |  |  |  |  |  |  |  |  | IgA induction, secondary screening ([1]; with CD40, listed as No. 12): induced IgA; also recorded: specifically induce IgA |
| CCC/C=C/C=C/C(=O)O[C@H]1/C(=C/C(=O)OC)C[C@H]2C[C@H]([C@@H](C)O)OC(=O)C[C@H](O)C[C@@H]3C[C@H](OC(C)=O)C(C)(C)[C@](O)(C[C@@H]4C/C(=C/C(=O)OC)C[C@H](/C=C/C(C)(C)[C@]1(O)O2)O4)O3 [bryostatin 1] |  |  | scarcely produced | scarcely produced | produced; also recorded: Only the induction of IgA is shown to occur | not observed | not observed | observed | did not show carcinogenicity | observed | IgA induction potency compared with Indolactam V ([1]; Example 4, FIG. 6): inferior; specific class switching to IgA (Example 4) ([1]; Example 4, FIGS. 6 and 7): induces specific class switching to IgA; IgA antibody titer on day 5 compared to the negative control (0.02% DMSO+CD40) ([1]; bryostatin 1 1, 5, 10 nM, with CD40, day 5): increased significantly; IgA antibody titer on day 7 ([1]; bryostatin 1 1, 5, 10 nM, with CD40, day 7): low; expression of alpha germline transcript (RT-PCR), CD40 not added ([3]; without CD40): low; proliferation of cultured cells, compound alone ([6]; bryostatin 1 alone (Example 5)): scarcely observed; proliferation of cultured cells ([6]; bryostatin 1 stimulation (Example 4)): scarcely observed; cell number on day 7 ([6]; stimulated with bryostatin 1, day 7): extremely small; expression of AID (RT-PCR), CD40 not added ([5]; without CD40): low |
